Data from patent US8524740B2, “Synthesis and anticancer activity of aryl and heteroaryl-quinolin derivatives” (Tairx, Inc., priority 2010, dated 2013).
pIC50: −log10 of the molar value.

Legend:
Colo205 = test: MTT assay, Colo205 cells; format: cell-based; details: Homo sapiens, COLO 205, Table 6
Protocol: (§1) MTT (3-(4,5-Dimethylthiazol-2-yl)-2,5-diphenyltetrazolium bromide) assays. HL-60, Hep 3B, H460, A498, Colo205 and Detroit 551 cells were treated with tested compounds for the indicated periods. After treatment, cells were washed once with PBS and incubated with MTT (Sigma, St. Louis, Mo., USA) for 2 h. The formazan precipitate was dissolved in 150 μL of DMSO, and the absorbance was measured with an ELISA reader at 570 nm.

A498 = test: MTT assay, A498 cells; format: cell-based; details: Homo sapiens, Table 6
Protocol: as §1

Detroit 551 = test: MTT assay, Detroit 551 normal human cells; format: cell-based; details: Homo sapiens, Detroit 551; Table 6; MTT
In short: (§2)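 H460 and Detroit 551 cells exposed to test compounds for 48 h (vehicle control); growth measured by MTT reduction, 2 h MTT incubation, formazan dissolved in DMSO, absorbance at 570 nm.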

H460 = test: MTT assay, H460 cells; format: cell-based; details: Homo sapiens, NCI-H460; Table 6; MTT
In short: as §2

Hep3B = test: MTT assay, Hep 3B cells; format: cell-based; details: Homo sapiens, Table 6, MTT
In short: (§3)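 Cells exposed to compounds for 48 h (other runs: indicated periods), then washed with PBS and given MTT for 2 h. Formazan dissolved in DMSO and read at 570 nm as a measure of cell growth.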

HL-60 = test: MTT assay, HL-60 cells; format: cell-based; details: Homo sapiens, Table 6, MTT
In short: as §3

- pIC50 (Colo205): < 4.30
- pIC50 (H460): < 4.30
- pIC50 (Hep3B): < 4.30
- melting point: > 300 °C
- pIC50 (HL-60): 6.40
Structure (SMILES): COc1cc(O)cc(-c2cc(=O)c3cc4c(cc3[nH]2)OCO4)c1 [Compound 166, 2-(3-Hydroxy-5-methoxyphenyl)-6,7-methylenedioxyquinolin-4-one]
- pIC50 (A498): < 4.30
- pIC50 (Detroit 551): < 4.30
